One test deals with T1, human hNET (Homo sapiens, UniProt P23975).
T1 construct: expressed in transfected cells; host or cells: MDCK (MDCK-Net6)
The test is described as follows: Norepinephrine (NE) uptake assay in MDCK-Net6 cells. The class given is cell-based. To be noted: [3H]NE uptake; for EC50: MDCK-Net6 cells stably transfected with hNET; for inhibition at 1 µM: MDCK-Net6 cells, read-out: hNET Percentage inhibition at 1 μM.

Another test addresses T2, human 5-HT2A receptor (Homo sapiens, UniProt P28223).
T2 construct: expressed in transfected cells; host or cells: CHO
The test is described as follows: 5-HT2A FLIPR assay (calcium response to DOI) in CHO cells. Format: cell-based. To be noted: for inhibition at 1 µM: CHO, read-out: 5-HT2A Percentage inhibition at 1 μM; for IC50: antagonist inhibition of 3 nM DOI stimulation, CHO cells, FLIPR. The procedure:
Cells are washed with PBS without Ca^2+ and 3 mL Trypsin is added to dissociate cells. After 3 minute incubation, 7 mL Trypsin Neutralizing Solution is added. Cells are then aspirated from flask and mixed in a 50 mL conical tube. 10 μL sample is used to count cells on a hemacytometer. […] Two 96-well drug plates are prepared for each cell plate. Plate 1 will contain compounds to be tested and plate 2 will contain the agonist DOI (3 nM) to activate a calcium response. Specific details of compound preparation are listed below. […] Outside wells are not used due to an edge effect seen in these cells. The reference compounds DOI and 5-HT are used as standard 5HT agonists. […] Standards for plate one are Vehicle, 1 μM DOI, and 3 nM MDL. […] On the day of the assay, test compound solutions of appropriate concentrations are diluted in assay buffer as described for single concentration testing. This procedure is followed to ensure that the solvent concentration is consistent across dilutions. The typical concentration testing range of compounds is 10^−10—10^−5 M in half log or full log increments. A 10 μM DOI stock is diluted to 60 nM and added to the respective wells. The pipeting station of the FLIPR will make an additional 20-fold dilution for a final concentration of 3 nM. Standards for this plate include Vehicle and 3 nM DOI. Contents of dye vial (Molecular Devices #R8090) are dissolved in 100 mL of 1×HBSS supplemented with 20 mM HEPES. Aliquots can be frozen at −20° C. for up to one week for future use. On the day of assay, dye is thawed and diluted to half concentration. […] Cells are allowed to adhere for 24 hours in 96-well plates. […] Cell, compound and DOI plates are loaded into the FLIPR machine. The baseline fluorescence level is read once every second for 1 minute. Compound (10 μL) is transferred from the compound plate to the cells and the fluorescence level recorded every 6 seconds for 2 minutes to determine any agonist activity. Baseline fluorescence is recorded again every second for 10 seconds. For antagonist determination, 10 μL of 3 nM DOI is transferred from the DOI plate to the cells and the fluorescence level recorded every 6 seconds for 5 minutes. The pipetting unit of the FLIPR machine completes all transfers. […] The data are log transformed prior to analysis.

Counter-ions that a name gives are not always drawn.

T1 sequence (P23975 whole entry): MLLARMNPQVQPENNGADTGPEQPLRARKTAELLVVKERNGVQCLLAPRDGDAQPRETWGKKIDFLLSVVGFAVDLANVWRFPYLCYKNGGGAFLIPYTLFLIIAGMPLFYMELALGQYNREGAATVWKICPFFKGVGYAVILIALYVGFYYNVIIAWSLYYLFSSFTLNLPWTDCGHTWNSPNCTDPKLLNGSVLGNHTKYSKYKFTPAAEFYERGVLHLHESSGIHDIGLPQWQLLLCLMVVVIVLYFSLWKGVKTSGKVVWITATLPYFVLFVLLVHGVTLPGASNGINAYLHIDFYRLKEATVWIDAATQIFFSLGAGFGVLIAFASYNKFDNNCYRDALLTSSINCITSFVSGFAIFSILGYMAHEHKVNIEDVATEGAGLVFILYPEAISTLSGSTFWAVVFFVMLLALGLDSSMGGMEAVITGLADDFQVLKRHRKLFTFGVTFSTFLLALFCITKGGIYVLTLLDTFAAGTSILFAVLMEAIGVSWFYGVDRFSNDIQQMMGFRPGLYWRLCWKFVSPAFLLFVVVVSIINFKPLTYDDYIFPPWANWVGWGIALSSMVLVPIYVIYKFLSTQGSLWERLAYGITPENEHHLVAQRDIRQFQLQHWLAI
T2 sequence (P28223 whole entry): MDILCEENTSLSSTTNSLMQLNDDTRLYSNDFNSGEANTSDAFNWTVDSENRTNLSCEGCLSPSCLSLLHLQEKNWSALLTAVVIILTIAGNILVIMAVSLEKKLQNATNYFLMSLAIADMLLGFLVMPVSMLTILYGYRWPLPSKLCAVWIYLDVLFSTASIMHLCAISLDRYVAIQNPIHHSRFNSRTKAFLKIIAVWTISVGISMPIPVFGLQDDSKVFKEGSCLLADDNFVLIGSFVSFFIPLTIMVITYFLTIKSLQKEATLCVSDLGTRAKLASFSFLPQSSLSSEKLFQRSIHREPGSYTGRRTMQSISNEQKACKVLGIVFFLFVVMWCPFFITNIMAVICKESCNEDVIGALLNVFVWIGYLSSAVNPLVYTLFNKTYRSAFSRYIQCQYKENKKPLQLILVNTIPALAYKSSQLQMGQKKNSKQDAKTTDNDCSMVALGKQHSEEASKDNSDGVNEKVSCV

On to `CNC[C@@H](O)[C@H](c1cccc(F)c1)n1ccc2cc(OCc3ccccc3)ccc21` [Example 24, (1S,2R)-1-[5-(benzyloxy)-1H-indol-1-yl]-1-(3-fluorophenyl)-3-(methylamino)propan-2-ol hydrochloride], for which the EC50 at human hNET turned out to be 36 nM. Also, at human 5-HT2A receptor, the inhibition at 1 µM was determined as 20%.
Consider `CNC[C@@H](O)[C@H](c1ccccc1)N1CCc2cc(OCc3ccccc3)ccc21` [Example 26, (1S,2R)-1-[5-(benzyloxy)-2,3-dihydro-1H-indol-1-yl]-3-(methylamino)-1-phenylpropan-2-ol hydrochloride], for which the EC50 on human hNET is 45 nM. In addition, the inhibition at 1 µM on human 5-HT2A receptor came to 23%.
Molecule `CNC[C@@H](O)[C@H](c1ccccc1)N1C(=O)C2(CCCCC2)c2cc(Cl)ccc21` [Example 27, 5′-chloro-1′-[(1S,2R)-2-hydroxy-3-(methylamino)-1-phenylpropyl]spiro[cyclohexane-1,3′-indol]-2′(1′H)-one hydrochloride] registered an EC50 on human hNET of 89 nM. Moreover, the half-inhibitory concentration (IC50) on human 5-HT2A receptor came out at 423 nM.
For `CNC[C@@H](O)[C@H](c1ccccc1)N1C(=O)C2(CCCCC2)c2ccc(Cl)cc21` [Example 28, 6′-Chloro-1′-[(1S,2R)-2-hydroxy-3-(methylamino)-1-phenylpropyl]spiro[cyclohexane-1,3′-indol]-2′(1′H)-one hydrochloride], the EC50 on human hNET was 448 nM. Besides, the IC50 at human 5-HT2A receptor was determined as 213 nM.
As to `CNC[C@@H](O)[C@H](c1ccccc1)N1C(=O)C2(CCCCC2)c2ccc(F)cc21` [Example 29, 6′-fluoro-1′-[(1S,2R)-2-hydroxy-3-(methylamino)-1-phenylpropyl]spiro[cyclohexane-1,3′-indol]-2′(1′H)-one hydrochloride], the EC50 at human hNET is 43 nM. The IC50 at human 5-HT2A receptor came to 106 nM.
In the case of `CNC[C@@H](O)[C@H](c1ccccc1)N1C(=O)C2(CCCCC2)c2cc(F)ccc21` [Example 30, 5′-fluoro-1′-[(1S,2R)-2-hydroxy-3-(methylamino)-1-phenylpropyl]spiro[cyclohexane-1,3′-indol]-2′(1′H)-one hydrochloride], the midpoint of the response on human hNET, the EC50, lay at 41 nM. Further, the IC50 on human 5-HT2A receptor was found to be 283 nM.
In the case of `CNC[C@@H](O)[C@H](c1ccccc1)N1C(=O)C2(CCCCC2)c2cccc(Cl)c21` [Example 31, 7′-Chloro-1′-[(1S,2R)-2-hydroxy-3-(methylamino)-1-phenylpropyl]spiro[cyclohexane-1,3′-indol]-2′(1′H)-one hydrochloride], at human hNET, a half-maximal effect (EC50) was put at 32 nM. The IC50 at human 5-HT2A receptor stood at 203 nM.
Consider `CNC[C@@H](O)[C@H](c1cccc(F)c1)N1C(=O)C2(CCCCC2)c2ccc(F)cc21` [Example 32, 6′-fluoro-1′-[(1S,2R)-1-(3-fluorophenyl)-2-hydroxy-3-(methylamino)propyl]spiro[cyclohexane-1,3′-indol]-2′(1′H)-one hydrochloride], for which the EC50 on human hNET was 43 nM. Besides, at human 5-HT2A receptor, the inhibition at 1 µM amounted to 95%.
Taken in the same sequence, the figures for `CNC[C@@H](O)[C@H](c1ccccc1)N1CC2(CCCCC2)c2ccccc21` [Example 33, (1S,2R)-3-(methylamino)-1-phenyl-1-spiro[cyclohexane-1,3′-indol]-1′(2′H)-ylpropan-2-ol hydrochloride] were 29 nM and 13%.
Taken in the same sequence, the figures for `CNC[C@@H](O)[C@H](c1ccccc1)n1ccc2cc(NC(=O)c3ccc(C)c(Cl)c3)ccc21` [Example 71, 3-chloro-N-{1-[(1S,2R)-2-hydroxy-3-(methylamino)-1-phenylpropyl]-1H-indol-5-yl}-4-methylbenzamide hydrochloride] were 92 nM and 44%.
The corresponding values for `CNC[C@@H](O)[C@H](c1ccccc1)N1CCc2cc(NC(=O)c3cccc(Cl)c3)ccc21` [Example 72, 3-Chloro-N-{1-[(1S,2R)-2-hydroxy-3-(methylamino)-1-phenylpropyl]-2,3-dihydro-1H-indol-5-yl}benzamide hydrochloride] are 95 nM and 60%.
In turn, `CNC[C@@H](O)[C@H](c1ccccc1)n1ccc2cc(NC(=O)c3cccc(Cl)c3)ccc21` [Example 73, 3-Chloro-N-{1-[(1S,2R)-2-hydroxy-3-(methylamino)-1-phenylpropyl]-1H-indol-5-yl}benzamide hydrochloride] gave an EC50 on human hNET of 91 nM. At human 5-HT2A receptor, the IC50 was 625 nM.
Molecule `CNC[C@@H](O)[C@H](c1ccccc1)N1CCc2cc(NC(=O)c3ccccc3)ccc21` [Example 74, N-{1-[(1S,2R)-2-Hydroxy-3-(methylamino)-1-phenylpropyl]-2,3-dihydro-1H-indol-5-yl}benzamide hydrochloride] came in with a concentration for a half-maximal effect (EC50) on human hNET of 365 nM. The inhibition at 1 µM at human 5-HT2A receptor was 24%.
The molecule `CNC[C@@H](O)[C@H](c1ccccc1)n1ccc2cc(NC(=O)c3ccccc3)ccc21` [Example 75, N-{1-[(1S,2R)-2-Hydroxy-3-(methylamino)-1-phenylpropyl]-1H-indol-5-yl}benzamide hydrochloride] returned an EC50 on human hNET of 299 nM. Moreover, on human 5-HT2A receptor, the inhibition at 1 µM is 34%.
`CNC[C@@H](O)[C@H](c1ccccc1)N1CCc2cc(NC(=O)C3CCCCC3)ccc21` [Example 76, N-{1-[(1S,2R)-2-Hydroxy-3-(methylamino)-1-phenylpropyl]-2,3-dihydro-1H-indol-5-yl}cyclohexanecarboxamide hydrochloride]: the inhibition at 1 µM at human hNET was 54%; on human 5-HT2A receptor, 45%.
Taken in the same sequence, the figures for `CNC[C@@H](O)[C@H](c1ccccc1)n1ccc2cc(NC(=O)C3CCCCC3)ccc21` [Example 77, N-{1-[(1S,2R)-2-Hydroxy-3-(methylamino)-1-phenylpropyl]-1H-indol-5-yl}cyclohexanecarboxamide hydrochloride] were 60% and 51%.
Turning to `CNC[C@@H](O)[C@H](c1ccccc1)N1CCc2cc(C(=O)Nc3cccc(Cl)c3)ccc21` [Example 78, N-(3-Chlorophenyl)-1-[(1S,2R)-2-hydroxy-3-(methylamino)-1-phenylpropyl]indoline-5-carboxamide hydrochloride], the EC50 at human hNET amounted to 362 nM. Moreover, the IC50 at human 5-HT2A receptor was 691 nM.
In turn, `CNC[C@@H](O)[C@H](c1ccccc1)n1ccc2cc(C(=O)Nc3cccc(Cl)c3)ccc21` [Example 79, N-(3-Chlorophenyl)-1-[(1S,2R)-2-hydroxy-3-(methylamino)-1-phenylpropyl]-1H-indole-5-carboxamide hydrochloride] displayed an EC50 at human hNET of 328 nM. At human 5-HT2A receptor, the IC50 came to 84 nM.
In the case of `CNC[C@@H](O)[C@H](c1ccccc1)n1ccc2ccc(Oc3ccccc3)cc21` [Example 80, (1S,2R)-3-(methylamino)-1-(6-phenoxy-1H-indol-1-yl)-1-phenylpropan-2-ol hydrochloride], the inhibition at 1 µM on human hNET is 12%; at human 5-HT2A receptor it was 32%.
`CNC[C@@H](O)[C@H](c1ccccc1)n1ccc2cccc(Oc3ccccc3)c21` [Example 81, (1S,2R)-3-(methylamino)-1-(7-phenoxy-1H-indol-1-yl)-1-phenylpropan-2-ol hydrochloride]: the response at human hNET was half-maximal at 1020 nM (EC50). Moreover, the IC50 on human 5-HT2A receptor is 372 nM.
The corresponding values for `NC[C@@H](O)[C@H](c1ccccc1)n1ccc2cc(OCc3ccccc3)ccc21` [Example 82, (1S,2R)-3-amino-1-[5-(benzyloxy)-1H-indol-1H-yl]-1-phenylpropan-2-ol hydrochloride] are 279 nM and 796 nM.
In the case of `CCNC[C@@H](O)[C@H](c1ccccc1)n1ccc2cc(OCc3ccccc3)ccc21` [Example 83, (1S,2R)-1-[5-(benzyloxy)-1H-indol-1-yl]-3-(ethylamino)-1-phenylpropan-2-ol hydrochloride], the inhibition at 1 µM at human hNET amounted to 43%. For the same molecule, at human 5-HT2A receptor, the IC50 was determined as 380 nM.
In the case of `CCCNC[C@@H](O)[C@H](c1ccccc1)n1ccc2cc(OCc3ccccc3)ccc21` [Example 84, (1S,2R)-1-[5-(benzyloxy)-1H-indol-1-yl]-1-phenyl-3-(propylamino)propan-2-ol hydrochloride], the inhibition at 1 µM is 11% on human hNET and 50% on human 5-HT2A receptor.
The corresponding values for `CC(C)NC[C@@H](O)[C@H](c1ccccc1)n1ccc2cc(OCc3ccccc3)ccc21` [Example 85, (1S,2R)-1-[5-(benzyloxy)-1H-indol-1-yl]-3-(isopropylamino)-1-phenylpropan-2-ol hydrochloride] are 4% and 32%.

(Values after US20070072897A1, “Phenylaminopropanol derivatives and methods of their use” (Wyeth, priority 2005, published 2007).)
